{"source": "ChEMBL document CHEMBL4007478", "about": "“Diarylpentadienone derivatives (curcumin analogues): Synthesis and anti-inflammatory activity” (Bioorg Med Chem Lett, 2017)", "key": {"[1]": {"assay": "Aqueous solubility of the compound in water at 1 mg exposed to ultrasound for 1 hr measured after 30 mins by UV-spectrophotometric method", "type": "physicochemical", "conditions": "for solubility at 1 h: water"}, "[2]": {"target": "Transcription factor p65 (Mus musculus) (UniProt Q04207)", "sequence (Q04207 whole entry)": "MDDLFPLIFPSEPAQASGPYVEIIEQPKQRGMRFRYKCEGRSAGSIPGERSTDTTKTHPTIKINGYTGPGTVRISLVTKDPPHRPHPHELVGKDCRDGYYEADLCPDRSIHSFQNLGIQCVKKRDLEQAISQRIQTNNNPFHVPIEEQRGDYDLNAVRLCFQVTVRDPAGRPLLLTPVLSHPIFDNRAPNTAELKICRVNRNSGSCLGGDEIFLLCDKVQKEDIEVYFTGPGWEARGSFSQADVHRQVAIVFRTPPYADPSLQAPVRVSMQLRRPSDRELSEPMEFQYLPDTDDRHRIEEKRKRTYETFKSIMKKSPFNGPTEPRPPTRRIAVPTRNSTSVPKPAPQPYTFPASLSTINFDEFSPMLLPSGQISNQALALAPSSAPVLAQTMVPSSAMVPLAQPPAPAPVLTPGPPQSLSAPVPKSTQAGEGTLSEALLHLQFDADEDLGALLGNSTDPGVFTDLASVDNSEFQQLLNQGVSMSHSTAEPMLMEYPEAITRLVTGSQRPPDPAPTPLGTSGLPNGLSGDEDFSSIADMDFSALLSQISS", "assay": "Inhibition of NF-kB p65 in mouse RAW264.7 cells assessed as reduction in LPS-induced COX2 expression at 0.3 ug/ml preincubated for 12 hrs followed by LPS stimulation for 3 hrs by Western blot method", "type": "cell-based"}, "[3]": {"target": "Transcription factor p65 (Mus musculus) (UniProt Q04207)", "assay": "Inhibition of NF-kB p65 in mouse RAW264.7 cells assessed as reduction in LPS-induced iNOS expression at 0.3 ug/ml preincubated for 12 hrs followed by LPS stimulation for 3 hrs by Western blot method", "type": "cell-based"}, "[4]": {"target": "Transcription factor p65 (Mus musculus) (UniProt Q04207)", "assay": "Inhibition of LPS-induced NF-kB p65 activation in mouse RAW264.7 cells at 0.3 ug/ml preincubated for 12 hrs followed by LPS stimulation for 3 hrs by DAPI staining based inverted fluorescence microscopic method", "type": "cell-based"}, "[5]": {"target": "Transcription factor p65 (Mus musculus) (UniProt Q04207)", "assay": "Inhibition of LPS-induced NF-kB p65 phosphorylation in mouse RAW264.7 cells at 0.3 ug/ml preincubated for 12 hrs followed by LPS stimulation for 3 hrs by Western blot method", "type": "cell-based"}, "RAW264.7 [6]": {"system": "RAW264.7", "assay": "Anti-inflammatory activity in mouse RAW264.7 cells assessed as inhibition of LPS-induced IL-6 production at 20 uM by ELISA", "type": "functional"}, "RAW264.7 [7]": {"system": "RAW264.7", "assay": "Anti-inflammatory activity in mouse RAW264.7 cells assessed as inhibition of LPS-induced TNFalpha production at 20 uM by ELISA", "type": "functional"}}, "note": "Calls of active or inactive are those of the source. No cut-off for these calls is given here."}
{"compound": "O=C(/C=C/C=C/c1ccccc1)c1ccc(F)cc1F", "values": [{"measurement": "solubility at 1 h", "setting": "[1]", "result": 7.86, "unit": "µg/mL"}]}
{"compound": "Cc1ccc(S(=O)(=O)/C=C/C#N)cc1", "values": [{"measurement": "inhibition", "setting": "[2]", "result": "Active"}, {"measurement": "inhibition", "setting": "[3]", "result": "Active"}, {"measurement": "inhibition", "setting": "[4]", "result": "Active"}, {"measurement": "inhibition", "setting": "[5]", "result": "Active"}]}
{"compound": "O=C(/C=C/C=C/c1ccccc1)c1ccc([N+](=O)[O-])cc1", "values": [{"measurement": "solubility at 1 h", "setting": "[1]", "result": 13.2, "unit": "µg/mL"}]}
{"compound": "COc1ccccc1/C=C/C=C/C(=O)c1cc(OC)c(OC)c(OC)c1", "values": [{"measurement": "inhibition", "setting": "RAW264.7 [6]", "result": "Active"}, {"measurement": "inhibition", "setting": "RAW264.7 [7]", "result": "Active"}, {"measurement": "solubility at 1 h", "setting": "[1]", "result": 25.9, "unit": "µg/mL"}]}
{"compound": "COc1cc(C(=O)/C=C/C=C/c2ccccc2)cc(OC)c1OC", "values": [{"measurement": "inhibition", "setting": "RAW264.7 [6]", "result": "Active"}, {"measurement": "inhibition", "setting": "RAW264.7 [7]", "result": "Active"}, {"measurement": "solubility at 1 h", "setting": "[1]", "result": 20.3, "unit": "µg/mL"}]}
{"compound": "CN(C)c1ccc(/C=C/C=C/C(=O)c2ccccc2Cl)cc1", "values": [{"measurement": "solubility at 1 h", "setting": "[1]", "result": 7.55, "unit": "µg/mL"}]}
{"compound": "O=C(/C=C/C=C/c1ccccc1)c1ccccc1Cl", "values": [{"measurement": "solubility at 1 h", "setting": "[1]", "result": 8.2, "unit": "µg/mL"}]}
{"compound": "CC(C)c1ccc(C(=O)/C=C/C=C/c2ccccc2)cc1", "values": [{"measurement": "solubility at 1 h", "setting": "[1]", "result": 6.78, "unit": "µg/mL"}]}
{"compound": "COc1ccccc1/C=C/C=C/C(=O)c1ccc([N+](=O)[O-])cc1", "values": [{"measurement": "solubility at 1 h", "setting": "[1]", "result": 13.9, "unit": "µg/mL"}]}
{"compound": "COc1ccccc1/C=C/C=C/C(=O)c1ccccc1Cl", "values": [{"measurement": "solubility at 1 h", "setting": "[1]", "result": 9.45, "unit": "µg/mL"}]}
{"compound": "COc1cc(/C=C/C(=O)CC(=O)/C=C/c2ccc(O)c(OC)c2)ccc1O", "note": "[CURCUMIN]", "values": [{"measurement": "inhibition", "setting": "RAW264.7 [6]", "result": "Active"}, {"measurement": "inhibition", "setting": "RAW264.7 [7]", "result": "Active"}, {"measurement": "solubility", "setting": "[1]; 1 h", "result": 12.87, "unit": "µg/mL"}]}
